Data as given in patent US7659278B2, “Use of low molecular weight compounds for preparing a medicament useful in treating mutant p53 mediated diseases” (Aprea AB, priority 2002, dated 2010).

Assays:
Saos-2-His-273 cells [1] = assay: Colony formation assay, Saos-2-His-273; type: cell-based, human
From the text: Colonies were stained with Giemsa and counted 14 days after seeding.
The cells were Giemsa stained and scored for the appearance of colonies after 14 days.

Saos-2-His-273 cells [2] = assay: Apoptosis induction by FACS (sub-G1, propidium iodide), Saos-2-His-273; type: cell-based, human; details: for time to apoptosis induction after treatment: data not shown; for p53 dependence of apoptosis induction: presence or absence of doxycyclin
Protocol: Induction of apoptosis was determined by FACS analysis of ethanol fixed cells stained with propidium iodide (PI) as percentage of a sub-G1 population. […] The percentage of dead cells in non-treated cultures and in controls treated with caspase inhibitors only was subtracted. […] Hoechst staining was used to stain cell nuclei.
(§1) Cells were placed on 12-well plate at a density of 30000/cm^2 and treated with compounds. After 48 h incubation cells were harvested by trypsinization, fixed with 70% ethanol, treated with RNase A (0.25 mg/ml) and stained with propidium iodide (0.02 mg/ml). Samples were analyzed on a Becton Dickinson FACScan. Data were analyzed by the CellQuest software, version 3.2.1.
Induction of cell death was determined by FACS analysis of ethanol-fixed cells stained with propidium iodide (PI) as percentage of sub-G1 population.

[3] = tested on: KRC/Y renal carcinoma cells (Phe-176 mutant p53); assay: Apoptosis induction by FACS, KRC/Y cells; type: cell-based, human; details: MIRA-1 50 μM, PRIMA-1 75 μM
Protocol: The percentage of apoptotic cells was detected by FACS analysis as it was described in FIG. 3A.
as §1
Thus, it appears that the defect caused by substitution of the Cys residue at position 176 is irreversible. The substitution of this Cys residue abolishes the binding of a Zn atom which holds together the DNA-binding loops of the p53 core domain. Therefore, the unfolding of this mutant p53 protein is probably too extensive to be restored.

[4] = molecular target: T1, GST-wild type p53 protein (Homo sapiens, UniProt P04637); assay: ELISA of p53 conformation epitopes (PAb1620, PAb240, DO-1), recombinant protein; type: biochemical; details: for appearance of PAb240 epitope (unfolding) upon heating: heating at 37° C.; for preservation of PAb 1620 epitope upon heating: recombinant wild type and mutant p53 proteins, 30 min at 37° C.
T1 construct: made in house
T1 sequence (P04637 whole entry): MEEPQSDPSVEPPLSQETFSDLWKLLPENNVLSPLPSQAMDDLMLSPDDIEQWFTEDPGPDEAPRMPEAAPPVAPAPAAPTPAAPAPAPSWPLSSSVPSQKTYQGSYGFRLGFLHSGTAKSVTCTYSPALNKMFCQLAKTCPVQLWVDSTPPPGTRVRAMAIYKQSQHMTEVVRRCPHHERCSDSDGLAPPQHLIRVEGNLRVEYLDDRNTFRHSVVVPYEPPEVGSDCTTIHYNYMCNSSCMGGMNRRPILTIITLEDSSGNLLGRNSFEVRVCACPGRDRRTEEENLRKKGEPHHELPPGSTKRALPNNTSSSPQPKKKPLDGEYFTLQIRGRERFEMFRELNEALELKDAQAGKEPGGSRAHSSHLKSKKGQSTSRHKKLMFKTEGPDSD
Protocol: Absorbance of the control sample incubated on ice was taken as 100%.
The procedure was performed with or without tested compounds. The ELISA analyses were done as described by (Foster et al., 1999). Briefly, after the treatment, samples were diluted with coating buffer (150 mM KCL, 25 mM HEPES) supplemented with 10 mM DTT. The whole mixture was apply to ELISA plates (MaxiSorp, Nunc) and incubated at +4° C. for 35 min. The wells were washed with coating buffer. The wells were blocked by 5% skim milk in PBS by incubating at +4° C. for 1 h. Wells were rinsed twice with PBS followed by addition of mouse primary antibodies (PAb 1620 or PAb 240) diluted 1:250 in coating buffer. Samples were incubated at +4° C. for 30 min. Wells were rinsed twice with PBS. After that, a secondary antibody (anti-mouse, conjugated with horse radish peroxidase) was incubated with samples at +4° C. for 30 min. Then plates were washed 5 times with PBS and a peroxidase substrate was added. An absorbance at λ405 nm was monitored by ELISA reader.

[5] = tested on: endogenous mutant p53 proteins; type: biochemical, human; details: cell extracts of human tumor cell lines, band shift
Protocol: PAb421 antibody was added to all reaction mixtures. […] Monoclonal antibody PAb421 was added to the reaction mixtures in lanes 2-8; PAb1801 was added to the reaction mixtures in lanes 9-15.
(§2) The GST-p53 proteins were prepared as described (Selivanova et al., 1997). Band shift assays were performed in binding buffer containing 100 mM HEPES pH 7.5, 50 mM KCl, 1 mg/ml BSA, 0.1% Triton X-100, 2 mM MgC12 and 1 mM DTT essentially as in (Selivanova et al., 1996).

SKOV-His-175 cells = assay: WST-1 proliferation assay, SKOV-His-175 cells (cycloheximide, His-175-22/23 comparison); type: cell-based, human; details: for increase in cell survival after cycloheximide pretreatment: cycloheximide before compound, WST-1
[6] = tested on: p53-responsive PG-luciferase reporter in Saos-2-His-273 cells; assay: PG-luciferase p53 reporter assay in Saos-2-His-273; type: cell-based, human
Protocol: Transactivation assays using p53-responsive promoter constructs linked to the luciferase reporter gene (PG-luc) were performed by the Dual Luciferase Reporter Assay System (Promega) according to the manufacturer. […] A luciferase activity was assayed 1; 3.5 and 15 hours post-treatment.
Whereas compound MIRA-1 stimulated luciferase expression 2-fold already after 3.5 hours, 2-fold induction by compound PRIMA-I was achieved only after 15 hours of treatment.

[7] = tested on: p53-responsive EGFP reporter in SKOV-His-175 cells; assay: p53-responsive EGFP reporter in SKOV-His-175 cells; type: cell-based, human
Protocol: FIG. 9B, mutant p53-dependent activation of the wild-type p53-responsive EGFP reporter in PRIMA-1-treated SKOV-His-175 cells. […] FIG. 9C, MIRA-1 induced wild-type p53-responsive EGFP reporter in SKOV-His-175 cells.
The p53-EGFP plasmid contains 13 synthetic p53 consensus DNA binding sites in front of the EGFP coding sequence. Transient transfections experiments were performed with Lipofectamine 2000 according to the manufacturer's recommendations (Invitrogemm Life Technologies, Groningen, The Netherlands).
We also transiently transfected SKOV-His-175 cells with a p53-responsive EGFP reporter.

[8] = tested on: p21 and MDM2 in H1299-His-175 cells; assay: Western blot of p53 target genes p21 and MDM2, H1299-His-175; type: cell-based, human
[9] = tested on: MDM2 and p21 in HCT 116 colon carcinoma cells (wild type p53); assay: Western blot of MDM2 and p21, HCT 116; type: cell-based, human
[10] = molecular target: T1, GST-wild type p53 protein; assay: Band shift assay, heat-inactivated GST-wild type p53; type: biochemical; details: protein inactivated at 37° C. for 30 min
Protocol: Lane 3, inactivation of DNA binding of wtp53 by heating.
as §2
Therefore, the restoration of the DNA binding of this mutant was regarded as an exceptionally difficult task.

[11] = recombinant protein treated with compound
[12] = absence of mutant p53 expression
[13] = cells expressing mutant p53, PRIMA-1 25 μM, MIRA-1 10 μM

Row | Structure (SMILES) | time to apoptosis induction after treatment (Saos-2-His-273 cells [2]) [h] | p53 dependence of apoptosis induction (Saos-2-His-273 cells [2]) | induction of apoptosis [3] | appearance of PAb240 epitope (unfolding) upon heating [4] | increase in PAb1620+ fraction [4, 11] | reduction in PAb240+ fraction [4, 11] | preservation of PAb 1620 epitope upon heating [4] | mutant p53 proteins with restored specific DNA binding [5] | increase in cell survival after cycloheximide pretreatment (SKOV-His-175 cells) | induction of MDM2 and p21 [8, 12] | induction of MDM2 and p21 [8, 13] | MDM2 and p21 protein levels [9] | restoration of specific DNA binding after heat inactivation [10] | further results
1 | CCCOCN1C(=O)C=CC1=O [MIRA-1, 1-(propoxymethyl)-maleimide] | 6 to 12 | occurred only in the presence of p53 expression | much less prominent as compared to Saos-2-His-273 cells | able to prevent unfolding of p53 proteins | About 40% | −20% | preserve the conformation-dependent epitope for PAb 1620 antibody | 3 out of 14 | about 4 fold | did not cause any induction of MDM2 nor p21 | solid induction of both MDM2 and p21 | did not cause any significant changes | able to restore the specific DNA binding of the GST-wild type p53 protein | number of colonies, of untreated control (Saos-2-His-273 cells [1]; 5 μM, colonies counted after 14 days): 15%; sensitivity of SKOV-His-175 cells in comparison with SKOV-His-175-22/23 cells (SKOV-His-175 cells; after compound treatment): at least 3 fold; stimulation of luciferase expression ([6]; after 3.5 hours): 2 fold; EGFP reporter expression ([7]; 5 μM for 24 hours): induction of EGFP was also observed
2 | O=C1C2CCN(CC2)C1(CO)CO [PRIMA-1, 2,2-bis(hydroxymethyl)-1-azabicyclo[2.2.2]octan-3-one] | 48 | occurred only in the presence of p53 expression | much less prominent as compared to Saos-2-His-273 cells | able to prevent unfolding of p53 proteins | 40% | corresponding decrease | preserve the conformation-dependent epitope for PAb 1620 antibody | 13 out of 14 | 4 fold | did not cause any induction of MDM2 nor p21 | solid induction of both MDM2 and p21 | did not cause any significant changes | able to restore the specific DNA binding of the GST-wild type p53 protein | doses inhibitory in a mutant p53-dependent manner (Saos-2-His-273 cells [1]; colony formation, 14 days): 50 to 100 µM; DO-1+ fraction [4, 11]: remained unchanged; induction of luciferase expression ([6]; after 15 hours of treatment): 2 fold; EGFP reporter expression ([7]; cells expressing mutant p53, 24 hours): strong induction of EGFP expression; EGFP reporter expression ([7]; presence of doxycycline (p53 off)): did not express detectable levels of EGFP
